This note sets out measurements from patent US12214036B2, “Combination therapy comprising AXL/MER and PD-1/PD-L1 inhibitors” (Incyte Corporation, priority 2020, dated 2025).

The test system of one assay is 179 kinases (c-Met). Nature of the assay: Comprehensive kinase study (179 kinases). Format: biochemical. To be noted: evaluated at 200 nM. As to the method: Compound 1 was also evaluated at 200 nM in a comprehensive kinase study, which included 179 kinases. […] The mode of inhibition with respect to ATP concentration was evaluated using a MER kinase assay.
Another assay addresses T1, AXL (Homo sapiens, UniProt P30530).
T1 construct: tumor cell lines expressing high levels of endogenous AXL; endogenous in cells; host or cells: H1299
T1 sequence (P30530 26-894): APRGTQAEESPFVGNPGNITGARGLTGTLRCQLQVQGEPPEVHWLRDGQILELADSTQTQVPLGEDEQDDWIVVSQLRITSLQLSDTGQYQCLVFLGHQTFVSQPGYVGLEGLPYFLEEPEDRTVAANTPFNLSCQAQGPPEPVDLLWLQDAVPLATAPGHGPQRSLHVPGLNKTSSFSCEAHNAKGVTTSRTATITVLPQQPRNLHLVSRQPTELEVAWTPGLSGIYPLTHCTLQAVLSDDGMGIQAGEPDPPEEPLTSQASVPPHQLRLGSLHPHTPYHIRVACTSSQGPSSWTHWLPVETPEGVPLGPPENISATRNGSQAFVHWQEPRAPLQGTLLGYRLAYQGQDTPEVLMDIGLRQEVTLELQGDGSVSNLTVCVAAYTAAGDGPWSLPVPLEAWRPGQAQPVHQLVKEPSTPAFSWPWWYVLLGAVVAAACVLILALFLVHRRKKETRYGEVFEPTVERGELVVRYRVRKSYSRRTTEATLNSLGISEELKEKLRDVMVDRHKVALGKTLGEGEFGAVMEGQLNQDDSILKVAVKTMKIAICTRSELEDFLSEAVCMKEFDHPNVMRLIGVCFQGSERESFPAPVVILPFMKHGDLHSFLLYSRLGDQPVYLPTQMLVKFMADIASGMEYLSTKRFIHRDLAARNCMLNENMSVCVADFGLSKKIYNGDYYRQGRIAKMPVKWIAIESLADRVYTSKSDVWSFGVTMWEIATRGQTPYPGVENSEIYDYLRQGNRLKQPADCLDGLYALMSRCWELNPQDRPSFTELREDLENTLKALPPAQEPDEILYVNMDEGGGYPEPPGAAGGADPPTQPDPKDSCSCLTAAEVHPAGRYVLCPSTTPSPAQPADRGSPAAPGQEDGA
The assay can be described thus: pAXL inhibition assay in H1299 cells (ELISA). To be noted: rhGAS6 stimulation, N=19 (FIG. 2). Format: cell-based. As to the method: The ability of Compound 1 to modulate AXL activity was evaluated in tumor cell lines expressing high levels of endogenous AXL.
H1299 cells were plated (30,000 cells/well) in 96-well tissue-culture plates (Costar, Corning Incorporated, Corning, N.Y.) and incubated overnight at 37° C. with 5% CO2. Compound 1 at an appropriate concentration was added and incubated for 1 hour at 37° C. with 5% CO2. rhGAS6 (R&D Systems, Minneapolis, Minn.; #885-GSB) was added at 1 μg/mL to each well, and plates were incubated at 37° C. with 5% CO2 for 15 minutes. Cells were harvested and lysed in 110 μL of ice-cold lysis buffer (Cell Signaling Technology, Danvers, Mass.; #9803) with protease and phosphatase inhibitors (ThermoFisher Scientific; #78446) for 1 hour on ice and stored at −80° C. for ELISA. ELISA plates were prepared by incubating Greiner lumitrac high-binding plates with 8 μg/mL of anti-AXL antibody (R&D Systems; MAB154) overnight at room temperature. The plates were washed and blocked with phosphate buffered saline (PBS) with 0.1% BSA. Cell lysates were loaded onto ELISA plates and incubated 2 hours at room temperature. […] The plates were gently shaken for 15 minutes at room temperature and read on the PheraStar (BMG Labtech). […]
On the technique in general: ELISA stands for enzyme-linked immunosorbent assay.

For the next assay, the system named is 4T1 tumor. The assay can be described thus: Tumor models in immunodeficient mice. To be noted: immunodeficient mice bearing the same tumors, FIG. 7C. Format: in vivo, athymic nude mice. The text has this: MBT-2 cells were obtained from the Japanese Collection of Research Bioresources Cell Bank and were maintained in DMEM supplemented with 10% FBS. MC38 cells were obtained from the NCI. 4T1 cells were obtained from ATCC and maintained in RPMI media supplemented with 10% FBS. For MBT-2 experiments, 5×10^5 MBT-2 cells were inoculated subcutaneously into the right hind flank of 6- to 8-week-old C3H mice or athymic nude mice (Charles River Laboratories, Wilmington, Mass.). For MC38 studies, 12-week old female C57BL/6 mice were inoculated with brei of MC38 tumors (in-vivo passage 6) into the right hind flank. For 4T1 studies, 7.5×10^5 4 T1 cells were inoculated subcutaneously into the right hind flank of 6- to 8-week-old female BALB/c mice or athymic nude mice (Charles River Laboratories). Mice were randomized by tumor volume with n=10-12 per group. […] Mice were monitored for tumor growth and overt tolerability over the course of the experiment. […] Tumor volume was calculated using the formula (L×W^2)/2, where L and W refer to the length and width dimensions, respectively. Tumor growth inhibition (TGI) was calculated using the formula (1−(VT/VC))×100, where VT is the tumor volume of the treatment group on the last day of treatment, and VC is the tumor volume of the control group on the last day of treatment. […]

With `CC(C)C(=O)N1CCC(c2cc(-c3ccc(NC(=O)c4cn(C(C)C)c(=O)n(-c5ccccn5)c4=O)cc3)c3c(N)ncnn23)CC1` [Compound 1, N-(4-(4-Amino-7-(1-isobutyrylpiperidin-4-yl)pyrrolo[1,2-f][1,2,4]triazin-5-yl)phenyl)-1-isopropyl-2,4-dioxo-3-(pyridin-2-yl)-1,2,3,4-tetrahydropyrimidine-5-carboxamide], in the assay on 179 kinases (c-Met), the “inhibition of other kinases” value was “did not inhibit any other kinases”; the “selectivity for AXL and MER compared to c-Met” value is on record as “approximately 60 fold”. Also, half-maximal inhibition on AXL (IC50) was put at 1.8 ± 0.63 nM. In addition, the “antitumor activity in immunodeficient mice” value with 4T1 tumor was “no activity”.
